Results published in patent US20220372014A1, “NEUROPROTECTIVE COMPOUNDS AND METHODS OF USE THEREOF” (The Johns Hopkins University, priority 2019, published 2022).
Entries after “also recorded” stand apart in the source; their conditions may differ.

Tests used:
[1] = molecular target: T1, PAAN/MIF (Homo sapiens, UniProt P14174); test: In vitro PAAN/MIF nuclease assay (PS30 or RF substrate, PAGE gel, noncleaved substrate DNA); type: biochemical; settings: RF and PS30 substrates
T1 construct: GST (N, cleaved yes); made in house; host or cells: Escherichia coli
T1 sequence (P14174 1-115): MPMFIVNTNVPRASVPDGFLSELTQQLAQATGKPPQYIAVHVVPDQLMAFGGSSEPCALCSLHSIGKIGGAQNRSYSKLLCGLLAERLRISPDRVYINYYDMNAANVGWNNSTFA
Protocol: (§1) Nuclease assay. Purified PAAN/MIF protein (4 μM) was incubated with compounds (10 μM) in the nuclease buffer [10 mM Tris-C1 (pH 7.0) and 10 mM MgCl2] for 20 m on ice. Then samples were added with 1 μM of PAAN/MIF substrate (PS30 or RF) and incubated for 1 h at 37° C. The reaction was terminated with loading buffer containing 10 mM EDTA and separated on 15% TBE-urea polyacrylamide (PAGE) gel or 20% TBE PAGE gel.
Purification of PAAN/MIF recombinant proteins. Human PAAN/MIF (NM_002415) cDNA and its variants were subcloned into pGEX-6β-1 vector (GE Healthcare) and mutants were generated using a QuikChange site-directed mutagenesis kit (Stratagene). The sequences were confirmed by automated DNA sequencing. The protein was expressed and purified from Escherichia coli by glutathione sepharose (GE Healthcare). The GST tag was subsequently proteolytically removed. GST protein was used as a negative control in the nuclease assay and PAAN/MIF proteins purified by FPLC using Superdex 200 10/300GL column (GE Healthcare, Life Sciences) were also used in the nuclease assays.

[2] = tested on: HeLa cells or neuronal cells; test: Cell death assay of Example 3 (MNNG, alamarBlue; protection against parthanatos, Table 4); type: cell-based; settings: 1 μM test compound, MNNG-induced cell death, alamarBlue
Outline: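 HeLa or neuronal cells (1×10^4/well) were pretreated 1 h at 37° C with 1 μM compound, exposed to MNNG for 15 min, washed, then re-incubated 18 h with 1 μM compound. Viability was read by alamarBlue fluorescence (ex 560/em 590 nm). Cell death was expressed relative to control wells.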

[3] = tested on: SH-SY5Y cells; test: Staurosporine (STS)-induced apoptotic cell death, Alamar blue; type: cell-based; settings: 0.5 μM STS
Protocol: Graphs represent mean±s.e.m. ***P<0.0005, two-way ANOVA followed by Tukey's post hoc test (n=3). A PARP inhibitor, ABT-888 is used for the positive control. FIGS. 12B and 12C show in vitro oxidoreductase and tautomerase activity of MIF/PAAN with compound 41, 56, 76, or 77. FIGS. 12D and 12E show Alamar blue cell viability assay from SH-SY5Y cells pre-incubated with compound 41, 56, 76, or 77 in response to 0.5 μM staurosporine (STS) or from HT 22 cells incubated with 1 ng/ml of TNF-α with 50 μM z-VAD. A pan caspase inhibitor, z-VAD or necrostatin (Nec-1) is used for the positive control and PARP inhibitor, ABT-888 is used for negative control. Bars represent mean±s.e.m. ***P<0.0005, two-way ANOVA followed by Tukey's post hoc test (n=3). […] Bars represent mean±s.e.m. **P<0.005, ***P<0.0005, two-way ANOVA followed by Tukey's post hoc test (n=3).
FIGS. 14A-14G show the characterization of compound 121. […] Bars represent means±s.e.m. ***P<0.0005, two-way ANOVA followed by Tukey's post hoc test (n=4). […] Bars represent mean±s.e.m. ***P<0.0005, two-way ANOVA followed by Tukey's post hoc test (n=4). […] Bars represent means±s.e.m. **P<0.005, ***P<0.0005, one-way ANOVA followed by Tukey's post hoc test (n=3). […] Bar represent mean±s.e.m. ***P<0.0005, one-way ANOVA followed by Tukey's post hoc test (n=3). […] Quantification of inhibition of PARP-1 activity by compound 56, compound 121 and ABT-888 is shown. Graphs represent mean±s.e.m. ***P<0.0005, two-way ANOVA followed by Tukey's post hoc test (n=3). FIGS. 14F and 14G show Alamar blue cell viability assay from SH-SY5Y cells pre-incubated with either compound 56 or 121 in response to (14F) 0.5 μM staurosporine (STS) or (14G) from HT 22 cells incubated with 1 ng/ml of TNF-α with 50 μM z-VAD. Bars represent mean±s.e.m. ***P<0.0005, two-way ANOVA followed by Tukey's post hoc test (n=5).
Cell death and viability assessment. Primary cultured cortical neurons were treated with 5 μg/ml of α-syn PFF for 14 days and cell death was determined by staining of all nuclei with 7 μM Hoechst 33342 and dead cell nuclei with 2 μM propidium iodide (PI) (Invitrogen). The numbers of total and dead cells were counted with the Axiovision 4.6 software (Carl Zeiss). Cell viability was determined by fluorescence at an excitation wavelength 570 nm and an emission wavelength 585 nm using Alamar Blue (Invitrogen).

[4] = molecular target: ExoIII (Escherichia coli, UniProt P09030); test: In vitro nuclease assay of ExoIII (18 bp double-strand DNA substrate); type: biochemical
ExoIII, sequence (P09030 whole entry): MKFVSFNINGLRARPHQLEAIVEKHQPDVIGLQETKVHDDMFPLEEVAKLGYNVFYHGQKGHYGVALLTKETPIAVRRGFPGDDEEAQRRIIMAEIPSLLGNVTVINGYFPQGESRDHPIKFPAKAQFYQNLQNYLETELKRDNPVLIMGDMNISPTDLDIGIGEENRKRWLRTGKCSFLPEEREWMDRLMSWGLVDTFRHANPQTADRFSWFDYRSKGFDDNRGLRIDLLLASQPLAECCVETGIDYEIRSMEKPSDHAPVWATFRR
Protocol: as §1, with “gel. For other nucleases (EcoRI and EcoRV) assays, pcDNA3 (500 ng/reaction) was used as a substrate and 0.01 unit of Exonulcase III were incubated with small dsDNA (Sequence ID NO 4:5′-[…]-3′ and Sequence ID NO 5:5′-[…]-3′).” for “gel.”

SMILES	inhibition of PAAN/MIF nuclease activity [1]	(%) inhibition of cell death [2] [%]	staurosporine (STS)-induced apoptotic cell death [3]	nuclease activity of ExoIII [4]	(%) inhibition of cell death ([2]; 1 µM) [%]
COc1ccc(CC[C@H]2OC(=O)[C@@H]3CCCCN3C(=O)C(=O)C(C)(C)COC(=O)C=CCCN(C)C(=O)CNC(=O)[C@H](C(C)C)N(C)C(=O)[C@@H](Cc3ccccc3)NC(=O)[C@H](CC(C)C)N(C)C(=O)CCC(=O)Nc3cccc2c3)cc1OC [compound 76]	prominently blocked	79.2	do not inhibit	do not inhibit	
COc1ccc(CC[C@H]2OC(=O)[C@@H]3CCCCN3C(=O)C(=O)C(C)(C)COC(=O)C=CCCN(C)C(=O)[C@@H]3CCCN3C(=O)[C@H](COC(C)(C)C)N(C)C(=O)C(c3ccccc3)NC(=O)CN(C)C(=O)COc3cccc2c3)cc1OC (stereo partly drawn) [compound 41]	prominently blocked		do not inhibit	do not inhibit	80.6
COc1ccc(CC[C@H]2OC(=O)[C@@H]3CCCCN3C(=O)C(=O)C(C)(C)COC(=O)C=CCCN(C)C(=O)[C@@H]3CCCN3C(=O)[C@H](CO)N(C)C(=O)C(c3ccccc3)NC(=O)[C@H](C)N(C)C(=O)COc3cccc2c3)cc1OC (stereo partly drawn) [compound 97]	has no effect	41.4			
COc1ccc(CC[C@H]2OC(=O)[C@@H]3CCCCN3C(=O)C(=O)C(C)(C)COC(=O)C=CCCN(C)C(=O)[C@@H]3CCCN3C(=O)[C@H](COC(C)(C)C)N(C)C(=O)C(c3ccccc3)NC(=O)[C@H](C)N(C)C(=O)COc3cccc2c3)cc1OC (stereo partly drawn) [compound 56]	prominently blocked; also recorded: inhibited		do not inhibit; also recorded: failed to inhibit	do not inhibit	81.5
COc1ccc(CC[C@H]2OC(=O)[C@@H]3CCCCN3C(=O)C(=O)C(C)(C)COC(=O)C=CCCN(C)C(=O)[C@@H]3CCCN3C(=O)[C@H](COC(C)(C)C)N(C)C(=O)C(c3ccccc3)NC(=O)[C@H](C)N(C)C(=O)COc3cc(F)cc2c3)cc1OC (mixture of isomers) [compound 121]	inhibited	90.1	failed to inhibit		
COc1ccc(CC[C@H]2OC(=O)[C@@H]3CCCCN3C(=O)C(=O)C(C)(C)COC(=O)C=CCCN(C)C(=O)[C@H](C)NC(=O)[C@H](C(C)C)N(C)C(=O)[C@@H](Cc3ccccc3)NC(=O)[C@H](CC(C)C)N(C)C(=O)CCC(=O)Nc3cccc2c3)cc1OC [compound 77]	prominently blocked	77.9	do not inhibit	do not inhibit	
